Assay results: patent publication US10232021B2, “Calcitonin mimetics for treating diseases and disorders” (KEYBIOSCIENCE AG, priority 2013, dated 2019)
Bridges are numbered along the chain shown (N, C = ends).

Assays:
Amylin Receptor (AMY-R) [1] = molecular target: T1, Amylin Receptor (AMY-R) (Homo sapiens, UniProt P30988); assay: PathHunter β-arrestin assay on the amylin receptor; type: cell-based; conditions: CHO-K1 CALCR+RAMP3 cells
T1 construct: host or cells: CHO-K1
T1 sequence (P30988 25-474): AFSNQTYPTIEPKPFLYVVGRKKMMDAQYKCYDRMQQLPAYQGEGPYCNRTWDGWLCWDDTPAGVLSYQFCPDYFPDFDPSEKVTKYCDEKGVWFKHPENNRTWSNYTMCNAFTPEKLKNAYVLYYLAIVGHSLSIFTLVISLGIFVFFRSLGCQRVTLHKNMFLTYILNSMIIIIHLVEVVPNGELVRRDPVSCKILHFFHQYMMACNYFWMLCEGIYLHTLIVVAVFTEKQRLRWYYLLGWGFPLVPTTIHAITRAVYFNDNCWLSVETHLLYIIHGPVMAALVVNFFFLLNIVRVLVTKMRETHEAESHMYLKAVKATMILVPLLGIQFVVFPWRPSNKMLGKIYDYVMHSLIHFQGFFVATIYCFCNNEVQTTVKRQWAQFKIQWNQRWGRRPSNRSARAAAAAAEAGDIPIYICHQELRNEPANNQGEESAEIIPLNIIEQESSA
T1 sequence (O60896 24-148 partner): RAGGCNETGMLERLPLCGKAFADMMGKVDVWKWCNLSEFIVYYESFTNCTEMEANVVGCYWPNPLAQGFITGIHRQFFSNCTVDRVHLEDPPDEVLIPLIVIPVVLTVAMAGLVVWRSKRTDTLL
Protocol: (§1) The following cell lines expressing the calcitonin, amylin and CGRP receptors were purchased and cultured according to the manufacturer's instructions. • 1. Calcitonin Receptor (CTR): U20S-CALCR from DiscoveRx (Cat. No.: 93-0566C3). • 2. Amylin Receptor (AMY-R): CHO-K1 CALCR+RAMP3 from DiscoveRx (Cat. No.: 93-0268C2). • 3. CGRP Receptor (CGRP-R): CHO-K1 CALCRL+RAMP1 from DiscoveRx (Cat. No.: 93-0269C2).
In independent bioassays, CTR, AMY-R and CGRP-R cells were treated with for the indicated timepoints with increasing doses of sCT, UGP-302/KBP-042 or the KBPs identified in Table 3 (0, 0.001, 0.01, 0.1, 1, 10, and 100 nM). […]
In this system, the GPCR is fused in frame with the small enzyme fragment ProLink™ and co-expressed in cells stably expressing a fusion protein of β-Arrestin and the larger, N-terminal deletion mutant of β-gal (called enzyme acceptor or EA). […] This interaction leads to an increase in enzyme activity that can be measured using chemiluminescent PathHunter® Detection Reagents.
The assay was performed in white 384 well plates (Greiner Bio-One, 784080). […] To quantify the GPCR-mediated β-arrestin recruitment the Pathhunter™ Detection Kit (93-0001, DiscoverX) was used and assay performed accordingly to the manufacturer's instructions.

[2] = molecular target: T2, Calcitonin Receptor (CTR) (Homo sapiens, UniProt P30988); assay: Competitive ligand binding against 125I-sCT on CTR cells; conditions: U20S-CALCR cells; 0.1 nM 125I-sCT; 60 min, 37° C.
T2 construct: host or cells: U2OS
T2 sequence (P30988 25-474): T1 sequence (P30988 25-474)
Text: as §1
(§2) Corresponding to the beta-arrestin induction experiments, we performed competitive ligand binding experiments using the cells expressing the CTR and the AMY-R. In studying ligand binding on cells, 15.000 CTR or AMY-R cells were seeded in 96-well plate and cells were treated with 0.1 nM ^125I-conjugated sCT with or without the presence of unlabelled KBP in increasing doses for 60 min at 37° C. After incubation the supernatant was removed and cells were washed twice in 200 μl PBS. The cells were lysed using RIPA‡ buffer (30 mM M NaCl, 50 mM Tris-HCl, 5 mM EDTA, 1% Deoxycholic acid, […], Protease inhibitor tablet mini (1 tablet:10 ml)) and lysates as well were collected for measurement on a γ-counter.

Amylin Receptor (AMY-R) [3] = molecular target: T1, Amylin Receptor (AMY-R); assay: Competitive ligand binding against 125I-sCT on AMY-R cells; conditions: CHO-K1 CALCR+RAMP3 cells; 0.1 nM 125I-sCT; 60 min, 37° C.
Text: as §1, §2

[4] = Three-week treatment of ZDF rats: fasting plasma glucose and HbA1c; type: in vivo, male ZDF (fa/fa) rats; conditions: 5 μg/kg/day subcutaneously once daily, 3 weeks
Protocol: To assess the effects of the peptides in relation to regulation of blood glucose levels, male ZDF rats, which are the gold standard model of Type 2 Diabetes were treated for 3 weeks with the 3 most promising KBPs (023, 056 and 088) and an active comparator (UGP302/KBP-042). Male ZDF (fa/fa) rats were obtained at the age of 7 weeks from Charles River Laboratories (Kisslegg, Deutschland). All animals were housed at the animal facility at Nordic Bioscience with a constant temperature (21-23° C.) and relative humidity (55-65%) on a 12 h light/dark cycle with free access to Purina 5008 rat chow (Brogaarden, Lynge, Denmark) and tap water. At the age of 8 weeks, the animals were randomized into five groups of 8 rats each based upon fasting blood glucose and body weight (Vehicle (saline), UGP302/KBP-042 5 μg/kg/day, KBP-023 5 μg/kg/day, KBP-056 5 μg/kg/day and KBP-088 5 μg/kg/day) and dosing was done subcutaneously once daily. The animals were treated for a total of 3 weeks to assess the effect of the peptides on fasting blood glucose. Blood glucose was monitored using the Accu-Check® Avia monitoring system (Roche Diagnostics, Rotkreuz, Switzerland) and HbA1c levels by the DCA Vantage™ Analyzer (Siemens Healthcare Diagnostics, Deerfield, Ill.).

[5] = Single-dose food intake in obese High-Fat-Diet rats; type: in vivo; conditions: single subcutaneous dose 1.25, 2.5, 5 μg/kg; obese rats fasted overnight
Protocol: Rats were fed a High-Fat-Diet for 14 weeks prior to the experiment to induce obesity.
Further similar studies were undertaken over different time periods and with different peptides and the results are seen in FIG. 10 and FIGS. 11A-11B. The ability of KBP089 to suppress food intake over 72 hours was compared to that of KBP042 as control and the results are seen in FIG. 10.

KBP-088: SEQ ID NO: 12; AcCSNLSTCMLGRLSQELHRLQTFPKTDVGANAP-NH2, Cys1-Cys7 disulphide bridge (Ac-CSNLSTCMLGRLSQELHRLQTFPKTDVGANAP-NH2; disulfide 1-7; SMILES CSCC[C@H](NC(=O)[C@@H]1CSSC[C@H](NC(C)=O)C(=O)N[C@@H](CO)C(=O)N[C@@H](CC(N)=O)C(=O)N[C@@H](CC(C)C)C(=O)N[C@@H](CO)C(=O)N[C@@H]([C@@H](C)O)C(=O)N1)C(=O)N[C@@H](CC(C)C)C(=O)NCC(=O)N[C@@H](CCCNC(=N)N)C(=O)N[C@@H](CC(C)C)C(=O)N[C@@H](CO)C(=O)N[C@@H](CCC(N)=O)C(=O)N[C@@H](CCC(=O)O)C(=O)N[C@@H](CC(C)C)C(=O)N[C@@H](Cc1c[nH]cn1)C(=O)N[C@@H](CCCNC(=N)N)C(=O)N[C@@H](CC(C)C)C(=O)N[C@@H](CCC(N)=O)C(=O)N[C@H](C(=O)N[C@@H](Cc1ccccc1)C(=O)N1CCC[C@H]1C(=O)N[C@@H](CCCCN)C(=O)N[C@H](C(=O)N[C@@H](CC(=O)O)C(=O)N[C@H](C(=O)NCC(=O)N[C@@H](C)C(=O)N[C@@H](CC(N)=O)C(=O)N[C@@H](C)C(=O)N1CCC[C@H]1C(N)=O)C(C)C)[C@@H](C)O)[C@@H](C)O)
activation of the AMY-R (β-arrestin dose-response) (Amylin Receptor (AMY-R) [1]): more potent that the classical AMY-R agonist sCT
competitive binding affinity on the CTR [2]: better than the other ligands
competitive binding affinity on the AMY-R (Amylin Receptor (AMY-R) [3]): better than the other ligands, particularly on the AMY-R
HbA1c [4]: highly active
fasting plasma glucose (FPG) [4]: highly active
food intake, 0-4 hours [5]: led to a reduction in food intake
food intake, 4-24 hours [5]: the effect was maintained to 24 hours
food intake, 24-48 hours [5]: only KBP-089 led to a reduction in food intake
